“Also recorded” adds a separate entry of the source.

The subject of data set [1] is γ-secretase. In words: Cell-free generation of intracellular domains (AICD, NICD, p75-ICD) in membrane fractions of 293 cells. Format: biochemical. As to conditions: membrane fractions from 293 cells overexpressing APP, Notch-ΔE or p75-ΔE. On the procedure: Membrane fractions isolated from 293 cells overexpressing either APP (A), Notch-ΔE (B) or p75-ΔE (C) and incubated in the presence of indicated compounds: Compound E (CpdE, general γ-secretase inhibitor), Rgk351, Rk1 and sulindac sulfide (SS).
Since the effect of Rk1 was rather selective to Aβ42 (but not Aβ40) in a cell-based assay, the question of whether Rk1 affects other γ-secretase-mediated cleavage events, including the generation of AICD resulted from a transmembrane cleavage of APP distal from either Aβ40 or Aβ42 site, and γ-secretase-mediated intramembrane cleavage of Notch1 or p75 neurotrophin receptor (p75NTR) to yield Notch1 or p75NTR intracellular domains (NICD or p75-ICD, respectively) was tested. The cell-free generation of AICD, NICD and p75-ICD was not affected by incubation with Rgk351 or Rk1 (FIG. 5).

The subject of data set [2] is Neuro2a cells expressing the human Swedish mutant form of APP. In words: Aβ generation in Neuro2a-SW cells. Type of data set: cell-based, mouse. The conditions noted are these: Neuro2a-SW; also CHO cells expressing wild-type human APP. From the text:
FIG. 16 depicts the effects of two major metabolites of ginsenosides, including 20(S)-protopanaxatriol (PPT) and 20(S)-protopanaxadiol (PPD) on Aβ42 generation. 20(S)-panaxatriol (PT) and 20(S)-panaxadiol (PD) are the artificial derivatives of PPT and PPPD, respectively.
Ginsenosides are metabolized by human intestinal bacteria after oral administration of ginseng extract (Kobayashi K., et al., Metabolism of ginsenoside by human intestinal bacteria [II] Ginseng Review 1994; 18: 10-14; Hasegawa H., et al., Main ginseng saponin metabolites formed by intestinal bacteria. Planta Med. 1996; 62: 453-457.). Therefore, the effects of two major metabolites of ginsenosides, including 20(S)-protopanaxatriol (PPT) and 20(S)-protopanaxadiol (PPD) on Aβ42 generation were tested. 20(S)-panaxatriol (PT) and 20(S)-panaxadiol (PD) are the artificial derivatives of PPT and PPPD, respectively.

The subject of data set [3] is CHO cells expressing human APP. The data set is described as follows: Secreted Aβ40/Aβ42 ELISA in medium of CHO-APP cells. Format: cell-based, Chinese hamster. On the set-up: key to Aβ42-lowering activity: Aβ42-lowering activity (“Yes”); no profound effects (“No”); non-determined (“ND”); Ginsenosides that affected cell viability are indicated as “Cytotoxic.”. The conditions noted are these: for Aβ42-lowering activity: Tables 1-3. On the procedure:
The CHO cells were treated with the indicated compounds (at 50 μg/ml) for 8 hrs. Aβ42 levels in the medium were measured by ELISA and normalized to intracellular full-length APP.
The potential effects of ginsenosides and their analogues in treating AD were examined. First, a number of ginsenosides were screened based on their effects on Aβ generation. The effects of various ginsenosides on Aβ (e.g., Aβ40 and Aβ42) production was initially accessed by incubating the Chinese hamster ovary (CHO) cells expressing human APP(CHO-APP cells) with each ginsenoside purified from unprocessed ginseng (known as “white ginseng”). These representative ginsenosides included Rb1, Rb2, Rc, Rd, Re, Re, Rg1 and Rg2 and differ in their side chains and sugar moieties.
After 8 hours of incubation, the media were collected and the levels of secreted Aβ40 and Aβ42 were determined by ELISA.
Steaming ginseng at high temperature gave rise to additional ginsenosides with enhanced pharmacological activity, including (20S)Rg3, Rk1 and Rg5 (22-25). Next, the effects of these heat-processing derived ginsenosides (e.g., (20S)Rg3, Rh1, Rh2, Rk1, Rg6, Rg5) on Aβ40 and Aβ42 generation were tested. […] In contrast, Aβ42 levels were not affected by (20R)Rg3, Rh1, and Rg6. Aβ40 levels were not changed by treatment with any of the ginsenosides tested. The potency of Aβ42-lowering activity was highest with Rk1 and (20S)Rg3. […] The secretion of Aβ40 was affected by treatment with Rk1 only at very high concentration (˜100 μM) and cell viability was not affected by treatment of Rk1 under these conditions (up to 100 μM, 8 hour treatment; data not shown). […] Overnight treatment with Rgk351, Rk1, and Rg5 also reduce Aβ42 production in CHO-APP cells (FIG. 12B). […] These studies provide a structure-activity relationship between the chemical structures of ginsenosides and Aβ42-lowering activity, further providing the basis for designing additional Aβ42-lowering analogues as well as for defining a class of compounds that harbor Aβ42-lowering activity.

The subject of a further data set is CHO-APP/PS1 cells. The data set is described as follows: Secreted Aβ40/Aβ42 ELISA in CHO-APP/PS1 cells. Format: cell-based, Chinese hamster. The protocol: (§1) FIG. 10 depicts the effects of native ginsenosides on Aβ42 production. CHO cells stably transfected with human APP695 together with either wild-type (A, CHO-APP/PS1 cells) or ΔE9 FAD mutant (B, CHO-APP/ΔE9PS1 cells) forms of PS1 were used. Cells were treated with the indicated compounds (at 50 μM) for 8 hrs. Levels of secreted Aβ40 and Aβ42 in the medium were determined by ELISA and normalized to intracellular full-length APP. In CHO-APP/PS1 cells, average Aβ amounts in control samples were 320 pM for Aβ40 and 79 pM for Aβ42. The relative levels of Aβ and Aβ42 were normalized to values obtained from non-treated and vehicle-treated cells and are shown as % to control+s.d.). One of three representative experiments are shown.
(§2) CHO-APP/PS1 (A) and CHO-APP/ΔE9PS1 (B) cells were treated with the indicated compounds at 50 μM for 8 hrs and the levels of secreted Aβ40 and Aβ42 were determined as described in FIG. 1. […] The PS1-ΔE9 FAD mutation diminished the Aβ42 response to Rk1 treatment (B).
A general note: ELISA stands for enzyme-linked immunosorbent assay.

Another data set deals with APP. In words: Western blot of APP processing in CHO-APP and Neuro2a-APPsw cells. Format: cell-based, Chinese hamster and mouse. The conditions noted are these: cell lysates. From the text: FIG. 13. depicts an analysis of APP processing after Rk1 treatment. Steady-state levels of full-length APP and APP C-terminal fragments (APP-CTFs) were examined by Western blot analysis using anti-R1 antibody. […] Correlated Aβ42 levels for each sample are shown in the bottom panel.
In general terms: A western blot detects proteins with antibodies after separation by electrophoresis.

For the next data set, the system named is CHO-APP/ΔE9PS1 cells. The data set is described as follows: Secreted Aβ40/Aβ42 ELISA in CHO-APP/ΔE9PS1 cells. Format: cell-based, Chinese hamster. The conditions noted are these: 50 μM, 8 hrs. On the procedure: as §1, §2
Steaming ginseng at high temperature gave rise to additional ginsenosides with enhanced pharmacological activity, including (20S)Rg3, Rk1 and Rg5 (22-25). Next, the effects of these heat-processing derived ginsenosides (e.g., (20S)Rg3, Rh1, Rh2, Rk1, Rg6, Rg5) on Aβ40 and Aβ42 generation were tested. […] In contrast, Aβ42 levels were not affected by (20R)Rg3, Rh1, and Rg6. Aβ40 levels were not changed by treatment with any of the ginsenosides tested. The potency of Aβ42-lowering activity was highest with Rk1 and (20S)Rg3. […] The secretion of Aβ40 was affected by treatment with Rk1 only at very high concentration (˜100 μM) and cell viability was not affected by treatment of Rk1 under these conditions (up to 100 μM, 8 hour treatment; data not shown). […] Overnight treatment with Rgk351, Rk1, and Rg5 also reduce Aβ42 production in CHO-APP cells (FIG. 12B). […]

Another data set deals with CHO cells. In words: Cell viability of treated CHO cells. Type of data set: cell-based, Chinese hamster. As to conditions: 50 μM treatment. On the procedure:
as §2
Tables 1-3 Structure of ginsenosides utilized in the study and their effects on Aβ42 generation. They differ at the two or three side chains attached to the common triterpene backbone known as dammarane. The common structure skeleton for each group of ginsenosides is shown in the top panel. Ginsenosides that harbor Aβ42-lowering activity are indicated in the far right column of the tables: Aβ42-lowering activity (“Yes”), no profound effects (“No”), and non-determined (“ND”). Ginsenosides that affected cell viability are indicated as “Cytotoxic.” Abbreviation for carbohydrates are as follows: Glc, D-glucopyranosyl; Ara (pyr), L-arabinopyranosyl; Ara (fur), L-arabinofuranyosyl; Rha, L-rhamnopyranosyl.
Steaming ginseng at high temperature gave rise to additional ginsenosides with enhanced pharmacological activity, including (20S)Rg3, Rk1 and Rg5 (22-25). Next, the effects of these heat-processing derived ginsenosides (e.g., (20S)Rg3, Rh1, Rh2, Rk1, Rg6, Rg5) on Aβ40 and Aβ42 generation were tested. […] In contrast, Aβ42 levels were not affected by (20R)Rg3, Rh1, and Rg6. […]

For data set [4], the system named is γ-secretase. In words: Cell-free γ-secretase assay (CHAPSO-solubilized membrane fractions, Aβ ELISA). Type of data set: biochemical. The conditions noted are these: cell-free γ-secretase assay, partially purified γ-secretase complex; 100 μM. On the procedure:
(A) CHAPSO-solubilized membrane fractions were incubated with recombinant γ-secretase substrates together with the indicated compounds (at 100 μM) and the levels of Aβ42 and Aβ40 were determined by ELISA as described (27-29). (B) Dose-response of Aβ40 and Aβ42-lowering activity of Rk1 and (20S)Rg3 in a cell-free γ-secretase assay.
Next, the inhibitory effects of Rk1 and (20S)Rg3 on Aβ generation in an in vitro γ-secretase assay was studied. […] In contrast, naproxen, an NSAID without Aβ42-lowering activity, had no effects on Aβ42 production (FIG. 15A).

The mark [5] stands for this setting: overnight treatment, CHO-APP cells.

As to `C[C@H](NC(=O)Cc1cc(F)cc(F)c1)C(=O)N[C@H]1N=C(c2ccccc2)c2ccccc2N(C)C1=O` [Compound E], in the data set with γ-secretase [1], the “cell-free generation of AICD, NICD and p75-ICD” value was “Very low amounts; also recorded: efficiently inhibited”.
Regarding `CC(C)=CCC[C@](C)(O)[C@H]1CC[C@]2(C)[C@@H]1[C@H](O)C[C@@H]1[C@@]3(C)CC[C@H](O)C(C)(C)[C@@H]3[C@@H](O)C[C@]12C` [PPT, Protopanaxatiol], in data set [2], the “levels of Aβ42” value is given as “without affecting” and the “production of Aβ42” value is “reduced”. For the same compound, the Aβ42-lowering activity result in data set [3] is “Yes”.
With `CC(C)=CC/C=C(\C)[C@H]1CC[C@]2(C)[C@@H]1[C@H](O)C[C@@H]1[C@@]3(C)CC[C@H](O[C@@H]4O[C@H](CO)[C@@H](O)[C@H](O)[C@H]4O[C@@H]4O[C@H](CO)[C@@H](O)[C@H](O)[C@H]4O)C(C)(C)[C@@H]3CC[C@]12C` [Rg5], the “potency of Aβ42-reducing activity (order)” value with CHO-APP/PS1 cells (50 μM, 8 hrs) is on record as “Rk1>/=(20S)Rg3>Rg5>(20R)Rg3”. The Aβ42 levels entry in the data set with CHO-APP/PS1 cells (CHO cells co-expressing human APP with wild-type PS1 or FAD mutant PS1 (delta E9, L286V)) was “much smaller as compared to Rgk351 and Rk1”. In addition, in the data set with APP, the “full-length APP levels” value is recorded as “not affected”. Besides, the “APP C-terminal fragments (γ-secretase substrates)” value with APP (CHO-APP and Neuro2a APPsw cells) was “increased accumulation”. In addition, the “Aβ42-lowering response in PS1 ΔE9 FAD mutant cells vs PS1 wild-type cells” value in the data set on CHO-APP/ΔE9PS1 cells is recorded as “diminished”. Also, in data set [3], the “potency of Aβ42-lowering activity (comparison among ginsenosides)” value was “much smaller as compared to Rgk351 and Rk1; also recorded: less effective”; the Aβ42-lowering activity entry is “Yes”. In addition, in data set [3] (CHO cells expressing human APP), the “Aβ42 in the medium, dose-dependence” value is recorded as “reduced; also recorded: lower Aβ42 in a dose-dependent manner”. The “generation of Aβ42 (Aβ42 levels in the medium, ELISA, normalized to intracellular full-length APP)” value in data set [3] (CHO cells stably transfected with human APP695, 50 μg/ml, 8 hrs) was “reduce”. Moreover, the “Aβ42 vs. Aβ40 in the medium (preference)” value in data set [3] (CHO-APP cells, normalized to non-treated and vehicle-treated cells) was “preferentially reduced Aβ42 (vs. Aβ40)”. Besides, the “secretion of Aβ42 (initial screening)” value in data set [3] (heat-processing derived ginsenosides) was “selectively lowered”. In addition, the “production of Aβ42 in cells (summary statement)” value in data set [3] (mammalian cells, in vitro) is “lower”. Moreover, the Aβ42 production result in data set [3] (setting [5]) is reported as “reduce”.
Take `CC(C)=CCC[C@](C)(O)[C@H]1CC[C@]2(C)[C@@H]1[C@H](O)C[C@@H]1[C@@]3(C)CC[C@H](O[C@@H]4O[C@H](CO)[C@@H](O)[C@H](O)[C@H]4O)C(C)(C)[C@@H]3CC[C@]12C` [Rh2]: in the data set on CHO cells, the cell viability result is listed as “partially affected”. Further, the Aβ42-lowering effects result in the data set on CHO-APP/PS1 cells (50 μM, 8 hrs) is on record as “exhibited Aβ42-lowering effects”.
`CSc1ccc(/C=C2/C(C)=C(CC(=O)O)c3cc(F)ccc32)cc1` [sulindac sulfide, reference compound]: the “Aβ42 generation in vitro” value in the data set on γ-secretase [4] is given as “potently inhibited”. Further, the entries for the “cell-free generation of AICD, NICD and p75-ICD” value in the data set with γ-secretase [1] and in the data set on γ-secretase [1] (listed as sulinac sulfide) were “abundantly produced” and “did not affect”, respectively. The Aβ40 production result in data set [3] (setting [5]) was “slightly affected”.

Source of the values: patent US20050245465A1, “Compounds for treating Alzheimer's disease and for inhibiting beta-amyloid peptitde production” (priority 2004, published 2005).
